Patent publication US11180462B2, “Microbiocidal oxadiazole derivatives” (SYNGENTA PARTICIPATIONS AG, priority 2015, dated 2021)

Columns and labels:
[1] = system: Puccinia recondita f. Sp. Tritici; experiment: Fungicidal activity against Puccinia recondita f. sp. tritici / wheat / leaf disc curative (brown rust); assay type: in vivo; conditions: foliar, 24 h, 200 ppm in the applied formulation, wheat leaf segments, curative (applied 1 day after inoculation), compared to untreated control leaf disks, read-out: disease control
Summary of the method: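 % disease control vs untreated, scored 6–8 d post-application. Wheat cv. Kanzler segments, spore-inoculated, dark 19° C/75% RH; formulated cpd applied 1 d post-inoc; then 19° C, 75% RH, 12 h L/12 h D.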

[2] = system: Puccinia recondita f. Sp. Tritici; experiment: Fungicidal activity against Puccinia recondita f. sp. tritici / wheat / leaf disc preventative (brown rust); assay type: in vivo; conditions: foliar, 200 ppm in the applied formulation, wheat leaf segments, preventative, compared to untreated control leaf disks, read-out: disease control
Summary of the method: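 200 ppm spray on wheat cv. Kanzler leaf segments; spore inoculation +1 day; 19° C., 75% rh, 12 h/12 h light cycle; single rating of % control vs untreated at 7 to 9 days.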

[3] = system: Glomerella lagenarium (Colletotrichum lagenarium); experiment: Fungicidal activity against Glomerella lagenarium (Colletotrichum lagenarium) liquid culture / cucumber / preventative (anthracnose); assay type: cell-based; conditions: Colletotrichum orbiculare; 20 ppm in the applied formulation; liquid culture (PDB), growth inhibition measured photometrically after 3 to 4 days; compared to untreated control; read-out: disease control
Summary of the method: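 Percent activity against the untreated check was derived from photometric growth measurements made 2 to 7 days after conidia in potato dextrose broth were combined with compound at 20 ppm. Cultures were kept dark at 24 °C and 96% humidity.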

Phakopsora Pachyrhizi = experiment: Fungicidal activity against Phakopsora pachyrhizi / soybean / leaf disc preventative (Asian soybean rust); assay type: in vivo; conditions: foliar, 200 ppm in the applied formulation, soybean leaf disks, compared to untreated control leaf disks, read-out: disease control
Summary of the method: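 Scored 12 to 14 days post-application as percent control relative to untreated check discs, rust spores were sprayed under the disc one day after compound treatment. Incubation: 20°C, 75% rh, first 24–36 h in darkness, then 12 h daily light; discs kept on water agar.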

CCON(Cc1ccc(-c2noc(C(F)(F)F)n2)cc1)C(=O)C1CCCO1 (stereo not drawn) [Compound 1.626, N-ethoxy-N-[[4-[5-(trifluoromethyl)-1,2,4-oxadiazol-3-yl]phenyl]methyl]-tetrahydrofuran-2-carboxamide]
≥ 80%: pest or weed control at 200 ppm [1] | pest or weed control at 200 ppm [2] | inhibition of growth at 20 ppm [3] | pest or weed control at 200 ppm (Phakopsora Pachyrhizi)

CON(Cc1ccc(-c2noc(C(F)(F)F)n2)cc1)C(=O)N(C)CC#N [Compound 3.57, 1-(cyanomethyl)-3-methoxy-1-methyl-3-[[4-[5-(trifluoromethyl)-1,2,4-oxadiazol-3-yl]phenyl]methyl]urea]
≥ 80%: pest or weed control at 200 ppm [1] | pest or weed control at 200 ppm [2] | inhibition of growth at 20 ppm [3] | pest or weed control at 200 ppm (Phakopsora Pachyrhizi)

CCC(C)C(=O)N(CCOC)Cc1ccc(-c2noc(C(F)(F)F)n2)cc1 (stereo not drawn) [Compound 1.350, N-(2-methoxyethyl)-2-methyl-N-[[4-[5-(trifluoromethyl)-1,2,4-oxadiazol-3-yl]phenyl]methyl]-butanamide]
≥ 80%: pest or weed control at 200 ppm [1] | pest or weed control at 200 ppm [2] | inhibition of growth at 20 ppm [3] | pest or weed control at 200 ppm (Phakopsora Pachyrhizi)

CCON(Cc1ccc(-c2noc(C(F)(F)F)n2)cc1)C(=O)C(CC)COC (stereo not drawn) [Compound 1.624, N-ethoxy-2-(methoxymethyl)-N-[[4-[5-(trifluoromethyl)-1,2,4-oxadiazol-3-yl]phenyl]methyl]-butanamide]
≥ 80%: pest or weed control at 200 ppm [1] | pest or weed control at 200 ppm [2] | inhibition of growth at 20 ppm [3] | pest or weed control at 200 ppm (Phakopsora Pachyrhizi)

CCC(C)N(Cc1ccc(-c2noc(C(F)(F)F)n2)cc1)C(=O)CCOC (stereo not drawn) [Compound 1.379, 3-methoxy-N-sec-butyl-N-[[4-[5-(trifluoromethyl)-1,2,4-oxadiazol-3-yl]phenyl]methyl]-propanamide]
≥ 80%: pest or weed control at 200 ppm [1] | pest or weed control at 200 ppm [2] | inhibition of growth at 20 ppm [3] | pest or weed control at 200 ppm (Phakopsora Pachyrhizi)

CCCC(=O)N(Cc1ccc(-c2noc(C(F)(F)F)n2)cc1)C1CC1 [Compound 1.97, N-cyclopropyl-N-[[4-[5-(trifluoromethyl)-1,2,4-oxadiazol-3-yl]phenyl]methyl]-butanamide]
≥ 80%: pest or weed control at 200 ppm [1] | pest or weed control at 200 ppm [2] | inhibition of growth at 20 ppm [3] | pest or weed control at 200 ppm (Phakopsora Pachyrhizi)

CON(Cc1ccc(-c2noc(C(F)(F)F)n2)cc1)C(=O)C1CC1 [Compound 1.2, N-methoxy-N-[[4-[5-(trifluoromethyl)-1,2,4-oxadiazol-3-yl]phenyl]methyl]-cyclopropane-carboxamide]
≥ 80%: pest or weed control at 200 ppm [1] | pest or weed control at 200 ppm [2] | inhibition of growth at 20 ppm [3] | pest or weed control at 200 ppm (Phakopsora Pachyrhizi)

CCON(Cc1ccc(-c2noc(C(F)(F)F)n2)cc1)C(=O)C1CC1C (stereo not drawn) [Compound 1.620]
≥ 80%: pest or weed control at 200 ppm [1] | pest or weed control at 200 ppm [2] | inhibition of growth at 20 ppm [3] | pest or weed control at 200 ppm (Phakopsora Pachyrhizi)

CCC(=O)N(C)Cc1ccc(-c2noc(C(F)(F)F)n2)cc1 [Compound 1.517, N-methyl-N-[[4-[5-(trifluoromethyl)-1,2,4-oxadiazol-3-yl]phenyl]methyl]-propanamide]
≥ 80%: pest or weed control at 200 ppm [1] | pest or weed control at 200 ppm [2] | inhibition of growth at 20 ppm [3] | pest or weed control at 200 ppm (Phakopsora Pachyrhizi)

COCCN(Cc1ccc(-c2noc(C(F)(F)F)n2)cc1)C(=O)CC1CC1 [Compound 1.331, 2-cyclopropyl-N-(2-methoxyethyl)-N-[[4-[5-(trifluoromethyl)-1,2,4-oxadiazol-3-yl]phenyl]methyl]-acetamide]
≥ 80%: pest or weed control at 200 ppm [1] | pest or weed control at 200 ppm [2] | inhibition of growth at 20 ppm [3] | pest or weed control at 200 ppm (Phakopsora Pachyrhizi)

CCC(C)N(Cc1ccc(-c2noc(C(F)(F)F)n2)cc1)C(=O)CC(F)(F)F (stereo not drawn) [Compound 1.404]
≥ 80%: pest or weed control at 200 ppm [1] | pest or weed control at 200 ppm [2] | inhibition of growth at 20 ppm [3] | pest or weed control at 200 ppm (Phakopsora Pachyrhizi)

C#CCN(C)C(=O)N(Cc1ccc(-c2noc(C(F)(F)F)n2)cc1)OC [Compound 3.61, 1-methoxy-3-methyl-3-prop-2-ynyl-1-[[4-[5-(trifluoromethyl)-1,2,4-oxadiazol-3-yl]phenyl]methyl]urea]
≥ 80%: pest or weed control at 200 ppm [1] | pest or weed control at 200 ppm [2] | inhibition of growth at 20 ppm [3] | pest or weed control at 200 ppm (Phakopsora Pachyrhizi)

CCN(Cc1ccc(-c2noc(C(F)(F)F)n2)cc1)C(=O)C1CCCO1 (stereo not drawn) [Compound 1.509, N-ethyl-N-[[4-[5-(trifluoromethyl)-1,2,4-oxadiazol-3-yl]phenyl]methyl]-tetrahydrofuran-2-carboxamide]
≥ 80%: pest or weed control at 200 ppm [1] | pest or weed control at 200 ppm [2] | inhibition of growth at 20 ppm [3] | pest or weed control at 200 ppm (Phakopsora Pachyrhizi)

CON(Cc1ccc(-c2noc(C(F)(F)F)n2)cc1)C(=O)C1CCSCC1 [Compound 1.46, N-methoxy-N-[[4-[5-(trifluoromethyl)-1,2,4-oxadiazol-3-yl]phenyl]methyl] tetrahydrothiopyran-4-carboxamide]
≥ 80%: pest or weed control at 200 ppm [1] | pest or weed control at 200 ppm [2] | inhibition of growth at 20 ppm [3] | pest or weed control at 200 ppm (Phakopsora Pachyrhizi)

CCC(=O)N(Cc1ccc(-c2noc(C(F)(F)F)n2)c(F)c1)OC [Compound 1.580, N-[[3-fluoro-4-[5-(trifluoromethyl)-1,2,4-oxadiazol-3-yl]phenyl]methyl]-N-methoxy-propanamide]
≥ 80%: pest or weed control at 200 ppm [1] | pest or weed control at 200 ppm [2] | inhibition of growth at 20 ppm [3] | pest or weed control at 200 ppm (Phakopsora Pachyrhizi)

C=CCN(Cc1ccc(-c2noc(C(F)(F)F)n2)cc1)C(=O)C(C)OC (stereo not drawn) [Compound 1.492, N-allyl-2-methoxy-N-[[4-[5-(trifluoromethyl)-1,2,4-oxadiazol-3-yl]phenyl]methyl]-propanamide]
≥ 80%: pest or weed control at 200 ppm [1] | pest or weed control at 200 ppm [2] | inhibition of growth at 20 ppm [3] | pest or weed control at 200 ppm (Phakopsora Pachyrhizi)

CON(Cc1ccc(-c2noc(C(F)(F)F)n2)cc1)C(=O)N1CCCC1 [Compound 3.60, N-methoxy-N-[[4-[5-(trifluoromethyl)-1,2,4-oxadiazol-3-yl]phenyl]methyl]-pyrrolidine-1-carboxamide]
≥ 80%: pest or weed control at 200 ppm [1] | pest or weed control at 200 ppm [2] | inhibition of growth at 20 ppm [3] | pest or weed control at 200 ppm (Phakopsora Pachyrhizi)

C#CCCC(=O)N(CC#C)Cc1ccc(-c2noc(C(F)(F)F)n2)cc1 [Compound 1.154, N-prop-2-ynyl-N-[[4-[5-(trifluoromethyl)-1,2.4-oxadiazol-3-yl]phenyl]methyl]-pent-4-ynamide]
≥ 80%: pest or weed control at 200 ppm [1] | pest or weed control at 200 ppm [2] | inhibition of growth at 20 ppm [3] | pest or weed control at 200 ppm (Phakopsora Pachyrhizi)

CCCON(Cc1ccc(-c2noc(C(F)(F)F)n2)cc1)C(=O)C1CCCN1C(C)=O (stereo not drawn) [Compound 1.314, 1-acetyl-N-propoxy-N-[[4-[5-(trifluoromethyl)-1,2,4-oxadiazol-3-yl]phenyl]methyl]-pyrrolidine-2-carboxamide]
≥ 80%: pest or weed control at 200 ppm [1] | pest or weed control at 200 ppm [2] | inhibition of growth at 20 ppm [3] | pest or weed control at 200 ppm (Phakopsora Pachyrhizi)

CC1(C(=O)N(Cc2ccc(-c3noc(C(F)(F)F)n3)cc2)CC2CC2)COC1 [Compound 1.235, N-(cyclopropylmethyl)-3-methyl-N-[[4-[5-(trifluoromethyl)-1,2,4-oxadiazol-3-yl]phenyl]methyl]-oxetane-3-carboxamide]
≥ 80%: pest or weed control at 200 ppm [1] | pest or weed control at 200 ppm [2] | inhibition of growth at 20 ppm [3] | pest or weed control at 200 ppm (Phakopsora Pachyrhizi)

C=C(C)C(=O)N(Cc1ccc(-c2noc(C(F)(F)F)n2)cc1)C(C)CC (stereo not drawn) [Compound 1.390, 2-methyl-N-sec-butyl-N-[[4-[5-(trifluoromethyl)-1,2,4-oxadiazol-3-yl]phenyl]methyl]-prop-2-enamide]
≥ 80%: pest or weed control at 200 ppm [1] | pest or weed control at 200 ppm [2] | inhibition of growth at 20 ppm [3] | pest or weed control at 200 ppm (Phakopsora Pachyrhizi)

CCC(C)N(Cc1ccc(-c2noc(C(F)(F)F)n2)cc1)C(=O)C(C)C (stereo not drawn) [Compound 1.369, 2-methyl-N-sec-butyl-N-[[4-[5-(trifluoromethyl)-1,2,4-oxadiazol-3-yl]phenyl]methyl]-propanamide]
≥ 80%: pest or weed control at 200 ppm [1] | pest or weed control at 200 ppm [2] | inhibition of growth at 20 ppm [3] | pest or weed control at 200 ppm (Phakopsora Pachyrhizi)

CCON(Cc1ccc(-c2noc(C(F)(F)F)n2)cc1)C(=O)N(C)C [Compound 3.28, 1-ethoxy-3,3-dimethyl-1-[[4-[5-(trifluoromethyl)-1,2,4-oxadiazol-3-yl]phenyl]methyl]urea]
≥ 80%: pest or weed control at 200 ppm [1] | pest or weed control at 200 ppm [2] | inhibition of growth at 20 ppm [3] | pest or weed control at 200 ppm (Phakopsora Pachyrhizi)

CON(Cc1ccc(-c2noc(C(F)(F)F)n2)cc1F)C(=O)C1CCCO1 (stereo not drawn) [Compound 1.563, N-[[2-fluoro-4-[5-(trifluoromethyl)-1,2,4-oxadiazol-3-yl]phenyl]methyl]-N-methoxy-tetrahydrofuran-2-carboxamide]
≥ 80%: pest or weed control at 200 ppm [1] | pest or weed control at 200 ppm [2] | inhibition of growth at 20 ppm [3] | pest or weed control at 200 ppm (Phakopsora Pachyrhizi)
